Tests used:
Format in all cases: functional, cell-based
[1] = tested on: HeLa; assay: Cytotoxicity against human HeLa cells assessed as reduction in cell viability incubated for 48 hrs by MTT assay
[2] = tested on: SMMC-7721; assay: Cytotoxicity against human SMMC-7721 cells assessed as reduction in cell viability incubated for 48 hrs by MTT assay; conditions: SMMC-7721, 48 h
[3] = tested on: HepG2; assay: Cytotoxicity against human HepG2 cells assessed as reduction in cell viability incubated for 48 hrs by MTT assay; conditions: HepG2, 48 h
[4] = tested on: HL-60; assay: Cytotoxicity against human HL-60 cells assessed as reduction in cell viability incubated for 48 hrs by MTT assay; conditions: HL-60, 48 h

SMILES: NCCCCCC(=O)Nc1ccc([As]2SCCCS2)cc1
- IC50 [1]: > 10 µM
- IC50 [2]: > 10 µM
- IC50 [3]: 5.36 µM
- IC50 [4]: 1.25 µM

SMILES: NCCCCCC(=O)Nc1ccccc1[As]1SCCCS1
- IC50 [1]: > 10 µM
- IC50 [2]: > 10 µM
- IC50 [3]: 8.47 µM
- IC50 [4]: 1.64 µM

SMILES: NCCCCCC(=O)Nc1cccc([As]2SCCCS2)c1
- IC50 [1]: > 10 µM
- IC50 [2]: > 10 µM
- IC50 [3]: 5.48 µM
- IC50 [4]: 1.51 µM

Reference: ChEMBL document CHEMBL5236559 (J Med Chem, 2021)
